Reference: ChEMBL document CHEMBL3779869, “Synthesis, identification, and biological activity of metabolites of two novel selective S1P1 agonists” (Bioorg Med Chem, 2016)
Active and inactive are the calls of the source. The rule behind the calls is not given here.

Tests used:
[1] = molecular target: Sphingosine 1-phosphate receptor 1 (Homo sapiens, UniProt P21453); test: Agonist activity at S1P1 receptor (unknown origin) expressed in CHO cells incubated for 2 hrs by HTRF-IP1 assay; assay type: cell-based
[2] = molecular target: Sphingosine 1-phosphate receptor 3 (Homo sapiens, UniProt Q99500); test: Agonist activity at S1P3 receptor (unknown origin) expressed in CHO cells incubated for 2 hrs by HTRF-IP1 assay; assay type: cell-based
[3] = species on record: Homo sapiens; test: Selectivity ratio of EC50 for S1P3 receptor (unknown origin) to EC50 for S1P1 receptor (unknown origin)
[4] = tested on: Blood; test: Drug metabolism in Sprague-Dawley rat blood assessed as formation of 2-amino-2-(2-(4'-(2-(2-hydroxypropyl)oxazol-4-yl)biphenyl-4-yl)ethyl)propane-1,3-diol hydrochloride at 3 mg/kg, po measured at 0.08 to 48 hrs by LC-MS/MS analysis; assay type: ADME, organism-based; settings: in vivo
[5] = tested on: Rattus norvegicus; test: Lymphopenia activity in Sprague-Dawley rat assessed as decrease in lymphocytes in peripheral blood at 3 mg/kg, po after 24 hrs by hematology analyzer; assay type: functional, organism-based
[6] = tested on: Blood; test: Drug metabolism in Sprague-Dawley rat blood assessed as formation of 2-amino-2-(2-(4'-(2-(1-hydroxyethyl)oxazol-4-yl)biphenyl-4-yl)ethyl)propane-1,3-diol hydrochloride at 3 mg/kg, po measured at 0.08 to 48 hrs by LC-MS/MS analysis; assay type: ADME, organism-based; settings: in vivo
[7] = tested on: Blood; test: Drug level in Sprague-Dawley rat blood assessed as compound formation treated with SYL930 at 3 mg/kg, po measured at 0.08 to 48 hrs by LC-MS/MS analysis; assay type: ADME, organism-based; settings: in vivo
[8] = tested on: Blood; test: Retention time of compound in Sprague-Dawley rat blood treated with SYL930 at 3 mg/kg, po by LC-MS/MS analysis; assay type: ADME, organism-based; settings: in vivo
[9] = tested on: Blood; test: Drug level in Sprague-Dawley rat blood assessed as compound formation treated with SYL927 at 3 mg/kg, po measured at 0.08 to 48 hrs by LC-MS/MS analysis; assay type: ADME, organism-based; settings: in vivo
[10] = tested on: Blood; test: Retention time of compound in Sprague-Dawley rat blood treated with SYL927 at 3 mg/kg, po by LC-MS/MS analysis; assay type: ADME, organism-based; settings: in vivo

Sphingosine 1-phosphate receptor 3, sequence (Q99500 whole entry): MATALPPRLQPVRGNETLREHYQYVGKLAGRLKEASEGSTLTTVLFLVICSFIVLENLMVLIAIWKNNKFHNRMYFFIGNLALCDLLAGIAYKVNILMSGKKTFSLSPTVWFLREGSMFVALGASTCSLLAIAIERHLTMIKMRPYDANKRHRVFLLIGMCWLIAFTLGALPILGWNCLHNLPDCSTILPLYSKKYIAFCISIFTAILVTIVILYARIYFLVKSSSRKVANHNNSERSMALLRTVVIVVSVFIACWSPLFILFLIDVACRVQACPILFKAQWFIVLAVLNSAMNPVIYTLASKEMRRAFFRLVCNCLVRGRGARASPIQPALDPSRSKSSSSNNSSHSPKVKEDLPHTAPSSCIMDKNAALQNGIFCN
Sphingosine 1-phosphate receptor 1, sequence (P21453 whole entry): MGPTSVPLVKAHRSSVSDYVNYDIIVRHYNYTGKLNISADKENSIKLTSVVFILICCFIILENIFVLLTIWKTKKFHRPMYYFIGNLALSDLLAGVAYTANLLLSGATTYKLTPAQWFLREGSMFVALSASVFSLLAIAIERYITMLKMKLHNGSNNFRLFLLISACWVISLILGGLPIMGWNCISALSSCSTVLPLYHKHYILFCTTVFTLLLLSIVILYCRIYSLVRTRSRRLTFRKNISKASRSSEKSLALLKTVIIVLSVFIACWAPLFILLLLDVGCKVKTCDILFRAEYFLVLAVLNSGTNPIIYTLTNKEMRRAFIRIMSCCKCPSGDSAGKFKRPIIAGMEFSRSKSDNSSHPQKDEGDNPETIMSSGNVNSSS

| EC50 [1] [nM] | EC50 [2] [nM] | Ratio EC50 [3] | Drug metabolism [4] | Drug metabolism [6] | Drug metabolism [7] | Retention_time [8] [min] | Drug metabolism [9] | Retention_time [10] [min] | Structure (SMILES) | Activity [5] |
| --- | --- | --- | --- | --- | --- | --- | --- | --- | --- | --- |
| > 10000 | > 10000 |  |  | metabolite_detected |  |  |  |  | CCc1nc(-c2ccc(-c3ccc(CCC(N)(CO)CO)cc3)cc2)co1.Cl | Active |
| 7 | 1060 | 151 |  |  |  |  |  |  | CCc1nc(-c2ccc(-c3ccc(CCC(N)(CO)COP(=O)(O)O)cc3)cc2)co1 (stereo unspecified) |  |
| > 10000 | > 10000 |  |  |  |  |  | metabolite_detected | 6.6 | CC(O)c1nc(-c2ccc(-c3ccc(CCC(N)(CO)CO)cc3)cc2)co1.Cl (stereo unspecified) | Active |

The remaining lines, values behind:

| Structure (SMILES) | EC50 [1] [nM] | EC50 [2] [nM] | Ratio EC50 [3] | Drug metabolism [4] | Drug metabolism [6] | Drug metabolism [7] | Retention_time [8] [min] | Drug metabolism [9] | Retention_time [10] [min] | Activity [5] |
| --- | --- | --- | --- | --- | --- | --- | --- | --- | --- | --- |
| CCCc1nc(-c2ccc(-c3ccc(CCC(N)(CO)CO)cc3)cc2)co1.Cl | 1610 | > 10000 | > 6 | metabolite_detected |  |  |  |  |  | Active |
| CC(O)Cc1nc(-c2ccc(-c3ccc(CCC(N)(CO)CO)cc3)cc2)co1.Cl (stereo unspecified) | 1520 | > 10000 | > 6 |  |  | metabolite_detected | 13 |  |  | Active |
| CCCc1nc(-c2ccc(-c3ccc(CCC(N)(CO)COP(=O)(O)O)cc3)cc2)co1 (stereo unspecified) | 13.3 | 484 | 36 |  |  |  |  |  |  |  |
